Literature values as cited in paper PMC8287861 (Frontiers in Microbiology, 2021).
Values after ≈ are worked out from the molar mass of the structure shown. Like-named read-outs stand apart in the source and are kept apart here.

Assays:
KPC-2 [1] = system: KPC-2; parameters: method as in Tsivkovski et al. (2020); details: KPC-2, class A; ref Tsivkovski et al. (2020)
CTX-M-14 = system: CTX-M-14; parameters: method as in Tsivkovski et al. (2020); details: CTX-M-14, class A; ref Tsivkovski et al. (2020)
CTX-M-15 [2] = system: CTX-M-15; parameters: method as in Tsivkovski et al. (2020); details: CTX-M-15, class A; ref Tsivkovski et al. (2020)
SHV-12 [3] = details: SHV-12, class A; ref Tsivkovski et al. (2020)
P99 [4] = system: P99; parameters: method as in Tsivkovski et al. (2020); details: P99, class C; ref Tsivkovski et al. (2020)
OXA-48 [5] = system: OXA-48; parameters: method as in Tsivkovski et al. (2020); details: OXA-48, class D; ref Tsivkovski et al. (2020)
OXA-23 [6] = system: OXA-23; parameters: method as in Tsivkovski et al. (2020); details: OXA-23, class D; ref Tsivkovski et al. (2020)
VIM-1 [7] = system: VIM-1; parameters: method as in Tsivkovski et al. (2020); details: VIM-1, class B; ref Tsivkovski et al. (2020)
IMP-1 [8] = system: IMP-1; parameters: method as in Tsivkovski et al. (2020); details: class B, ref Tsivkovski et al. (2020)
KPC-2 [9] = details: ref Tsivkovski et al. (2020)
KPC-3 = target: KPC-3; parameters: method as in Tsivkovski et al. (2020); details: ref Tsivkovski et al. (2020)
BKC-1 = target: BKC-1; parameters: method as in Tsivkovski et al. (2020); details: ref Tsivkovski et al. (2020)
FRI-1 = target: FRI-1; parameters: method as in Tsivkovski et al. (2020); details: ref Tsivkovski et al. (2020)
SME-2 = target: SME-2; parameters: method as in Tsivkovski et al. (2020); details: ref Tsivkovski et al. (2020)
CTX-M-15 [10] = target: CTX-M-15; parameters: method as in Tsivkovski et al. (2020); details: ref Tsivkovski et al. (2020)
SHV-12 [11] = target: SHV-12; parameters: method as in Tsivkovski et al. (2020); details: ref Tsivkovski et al. (2020)
TEM-43 = target: TEM-43; parameters: method as in Tsivkovski et al. (2020); details: ref Tsivkovski et al. (2020)
P99 [12] = target: P99; parameters: method as in Tsivkovski et al. (2020); details: ref Tsivkovski et al. (2020)
OXA-48 [13] = target: OXA-48; parameters: method as in Tsivkovski et al. (2020); details: ref Tsivkovski et al. (2020)
OXA-23 [14] = target: OXA-23; parameters: method as in Tsivkovski et al. (2020); details: ref Tsivkovski et al. (2020)
OXA-24 = target: OXA-24; parameters: method as in Tsivkovski et al. (2020); details: ref Tsivkovski et al. (2020)
OXA-58 = target: OXA-58; parameters: method as in Tsivkovski et al. (2020); details: ref Tsivkovski et al. (2020)
VIM-1 [15] = target: VIM-1; parameters: method as in Tsivkovski et al. (2020); details: ref Tsivkovski et al. (2020)
IMP-1 [16] = target: IMP-1; parameters: method as in Tsivkovski et al. (2020); details: ref Tsivkovski et al. (2020)
[17] = system: isogenic strains of P. aeruginosa that produced KPC; parameters: method as in Lomovskaya et al., 2020a; details: ref Lomovskaya et al., 2020a; for PV50: potency to enhance biapenem activity;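 for PV50: read from a curve of biapenem MIC plotted against inhibitor concentration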
[18] = system: KPC-producing porin/efflux mutants of K. pneumoniae; details: ref Lomovskaya et al., 2020a
[19] = system: Acinetobacter baumannii mutants producing OXA-23; parameters: method as in Lomovskaya et al., 2020a; details: overexpression of efflux pumps; ref Lomovskaya et al., 2020a
[20] = system: carbapenem-resistant strains of Enterobacterales (CRE); parameters: method as in Nelson et al. (2020a); details: with meropenem, ref Nelson et al. (2020a)
[21] = system: ESBL and CRE producing strains of Enterobacterales; parameters: method as in Nelson et al. (2020a; 2020b); details: ref Nelson et al. (2020a; 2020b)
[22] = system: carbapenem resistant Acinetobacter baumannii; details: in combination with meropenem; majority of the subsets of strains; ref Nelson et al., 2020b
[23] = parameters: method as in Hecker et al., 2020; details: rats, doses of 30–100 mg/kg; ref Hecker et al., 2020
[24] = parameters: method as in Sabet et al., 2020; details: plasma QPX7728 exposure associated with 8 μg/ml; ref Sabet et al., 2020
[25] = inactivation of OmpK35 and OmpK36 and increased efflux

For `O=C(O)c1c(F)ccc2c1OB(O)[C@@H]1C[C@H]21` [QPX7728], the IC50 (KPC-2 [1]) is listed as 2.9 ± 0.4 nM, the IC50 (CTX-M-14) is listed as 0.94 ± 0.2 nM and the IC50 (CTX-M-15 [2]) is listed as 1.2 ± 0.1 nM. The IC50 (SHV-12 [3]) was 1.9 ± 0.6 nM, the IC50 (P99 [4]) was 22 ± 6 nM and the IC50 (OXA-48 [5]) was 1.1 ± 0.4 nM. For the same compound, the IC50 (OXA-23 [6]) was 1.2 ± 0.4 nM, the IC50 (VIM-1 [7]) was 14 ± 4 nM and the IC50 (IMP-1 [8]) was 610 ± 70 nM. For the same compound, the Kd (KPC-2 [9]) was 0.25 ± 0.03 nM, the Kd (KPC-3) was 0.31 ± 0.06 nM and the Kd (BKC-1) was 0.06 ± 0.005 nM. The Kd (FRI-1) was 0.11 ± 0.01 nM, the Kd (SME-2) was 0.15 ± 0.02 nM and the Kd (CTX-M-15 [10]) was 0.11 ± 0.02 nM. The Kd (SHV-12 [11]) was 28 ± 4 nM, the Kd (TEM-43) was 0.17 ± 0.02 nM and the Kd (P99 [12]) was 0.53 ± 0.06 nM. The Kd (OXA-48 [13]) was 0.13 ± 0.01 nM, the Kd (OXA-23 [14]) was 1.6 ± 0.2 nM and the Kd (OXA-24) was 0.58 ± 0.1 nM. For the same compound, the Kd (OXA-58) was 3.2 ± 0.3 nM, the Kd (VIM-1 [15]; VIM-1 (text b23 calls it Ki)) was 7.5 ± 2.1 nM and the Ki (VIM-1 [15]; VIM-1, competitive inhibitor) was roughly 7 nM. For the same compound, the Kd (IMP-1 [16]; IMP-1 (text b23 calls it Ki)) was 240 ± 30 nM, the Ki (IMP-1 [16]; IMP-1, competitive inhibitor) was roughly 240 nM and the PV50 ([17]; PAM4126, mexR (MexAB-OprM)) was 2 µg/mL. For the same compound, the PV50 ([17]; PAM4129, nfxB (MexCD-OprJ)) was 0.5 µg/mL, the PV50 ([17]; PAM4132, mexT (MexEF-OprM)) was 1 µg/mL and the PV50 ([17]; PAM4150, mexZ (MexXY-OprM)) was 1 µg/mL. The PV50 ([17]; PAM4224, Wild-type) was 1 µg/mL, the PV50 ([17]; PAM4365, MexA::Tet) was 1 µg/mL and the reduction in potency ([17]; mexAB-oprM efflux operon overexpressed) was “No more than two-fold reduction in potency”. For the same compound, the “effect of inactivation of the carbapenem porin OprD on potency” value [17] was “did not have any effect”, the “potency to completely inhibit KPC” value ([18]; before porin/efflux mutations) was 0.125 µg/mL (≈ 0.563 µM) and the “potency to completely inhibit KPC” value [18, 25] was 4 µg/mL (≈ 18 µM). For the same compound, the “reduction of the potency to completely inhibit KPC” value [18, 25] was “ca. 32 fold”, the “effect of efflux on potency to inhibit β-lactamase” value [19] was “no effect of efflux on the potency” and the TPC90 ([20]; 598 CRE, breakpoint of 8 μg/ml) was 4 µg/mL. For the same compound, the TPC90 ([20]; subsets with carbapenemase production and non-β-lactamase-mediated resistance mechanisms) was 4 to 8 µg/mL, the TPC90 ([21]; in combination with aztreonam at 8 μg/ml (FDA susceptible breakpoint)) was 4 µg/mL and the TPC90 ([21]; in combination with cefepime at 8 μg/ml (FDA susceptible breakpoint)) was 4 µg/mL. For the same compound, the TPC90 [22] was “less than or equal to 8 μg/ml”, the oral bioavailability [23] was 43–53% and the “efficacy of plasma exposure” value [24] was “efficacious in animal models of infection”.
